Source: patent US20060069084A1, “Methods of inhibiting kinases” (priority 2001, published 2006)

Experiments:
Assay type in all cases: biochemical
Conditions in all cases: inhibit 50% of activity at 50 μM
JAK1 = target: T1, JAK1 (Homo sapiens, UniProt P23458); experiment: JAK1 kinase domain capture-based ELISA kinase assay
T1 construct: The kinase domain of humanJAK1 was amplified from U937mRNA; His tag (from pFastBac HTb vector; nickel chelate purification) (N); made in house; host or cells: baculovirus; virus made in Sf9, large-scale expression in High Five insect cells
Protocol: (§1) For screening purposes, compounds were diluted in 96 well plates at a concentration of 50 μM or 20 μM. Plates were warmed at 37° C. for 30 minutes before assay.
The kinase domain of humanJAK1 was amplified from U937mRNA using the polymerase chain reaction with the following primers: […]
JAK1 PCR products were cloned into the pFastBac HTb expression vector (Gibco) via the Xho I and Kpn I sites. The JAK1 plasmid was then transformed into competent DH10Bac cells (Gibco), and the recombinant baculovirus produced prepared for transfection into Sf9 insect cells.
(§2) Baculovirus preparations from each of the JAK family members were infected into five litres of High Five cells (Invitrogen) grown in High Five serum free medium (Invitrogen) to a cell density of approximately 1-2×10^6 cells/ml. Cells are infected with virus at a MOI of 0.8-3.0. Cells were harvested and lysed. JAK kinase domains were purified by affinity chromatography on a Probond (Invitrogen) nickel chelate affinity column.
(§3) The biotinylated substrate biotin-EGPWLEEEEEAYGWMDF-NH2 (SEQ ID NO:9) (final concentration 5 μM) was used as substrate, and tyrosine phosphorylation was quantitated following transfer to an avidin coated ELISA plate using peroxidase-linked anti-phospho-tyrosine antibody PY20.
(§4) Inhibitors were added to the assays fifteen minutes prior to the addition of ATP. Inhibitors were added in aqueous DMSO, with DMSO concentrations never exceeding 1%.

JAK2 = target: T2, JAK2 (Homo sapiens, UniProt O60674); experiment: JAK2 kinase domain capture-based ELISA kinase assay
T2 construct: The kinase domain of humanJAK2 was amplified from U937mRNA; His tag (from pFastBac HTc vector; nickel chelate purification) (N); made in house; host or cells: baculovirus; virus made in Sf9, large-scale expression in High Five insect cells
Protocol: as §1
The kinase domain of humanJAK2 was amplified from U937mRNA using the polymerase chain reaction with the following primers: […]
JAK2 PCR products were cloned into the pFastBac HTc expression vector (Gibco) via the Sal I and Not I sites. The JAK2 plasmid was then transformed into competent DH10Bac cells (Gibco), and the recombinant baculovirus produced prepared for transfection into Sf9 insect cells.
as §2, §3, §4

JAK3 = target: T3, JAK3 (Homo sapiens, UniProt P52333); experiment: JAK3 kinase domain capture-based ELISA kinase assay
T3 construct: The kinase domain of humanJAK3 was amplified from U937mRNA; His tag (from pFastBac HTb vector; nickel chelate purification) (N); made in house; host or cells: baculovirus; virus made in Sf9, large-scale expression in High Five insect cells
Protocol: as §1
The kinase domain of humanJAK3 was amplified from U937mRNA using the polymerase chain reaction with the following primers: […]
JAK3 PCR products were cloned into the pFastBac HTb expression vector (Gibco) via the Xho I and Kpn I sites. The JAK3 plasmid was then transformed into competent DH10Bac cells (Gibco), and the recombinant baculovirus produced prepared for transfection into Sf9 insect cells.
as §2, §3, §4

TYK2 = target: T4, TYK2 (Homo sapiens, UniProt P29597); experiment: TYK2 kinase domain capture-based ELISA kinase assay
T4 construct: The kinase domain of humanTYK2 was amplified from A549 mRNA; His tag (from pBlueBacHis2A vector; nickel chelate purification) (N); made in house; host or cells: baculovirus; virus made in Sf9, large-scale expression in High Five insect cells
T4 sequence (P29597 897-1176 limits assumed): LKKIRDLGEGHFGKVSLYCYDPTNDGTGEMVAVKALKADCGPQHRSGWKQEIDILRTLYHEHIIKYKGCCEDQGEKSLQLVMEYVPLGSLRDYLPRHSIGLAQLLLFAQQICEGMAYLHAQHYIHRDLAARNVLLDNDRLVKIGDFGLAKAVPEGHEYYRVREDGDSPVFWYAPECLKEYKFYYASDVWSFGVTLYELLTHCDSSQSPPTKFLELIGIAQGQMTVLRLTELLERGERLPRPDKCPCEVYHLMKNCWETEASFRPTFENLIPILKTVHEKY
Protocol: as §1
The kinase domain of humanTYK2 was amplified from A549 mRNA using the polymerase chain reaction with the following primers: […]
TYK2 PCR products were cloned into pBlueBacHis2A (Invitrogen) via the EcoRI site. The recombinant TYK2 baculovirus produced was prepared for transfected into Sf9 insect cells.
as §2, §3, §4

T3 sequence (P52333 822-1111 limits assumed): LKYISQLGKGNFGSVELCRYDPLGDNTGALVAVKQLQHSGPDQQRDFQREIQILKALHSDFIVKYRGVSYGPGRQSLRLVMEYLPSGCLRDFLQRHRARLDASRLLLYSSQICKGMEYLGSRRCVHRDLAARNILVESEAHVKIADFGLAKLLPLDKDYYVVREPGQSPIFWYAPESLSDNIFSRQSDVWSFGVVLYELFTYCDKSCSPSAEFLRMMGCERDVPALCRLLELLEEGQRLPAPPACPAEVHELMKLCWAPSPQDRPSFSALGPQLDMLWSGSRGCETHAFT
T1 sequence (P23458 875-1153 limits assumed): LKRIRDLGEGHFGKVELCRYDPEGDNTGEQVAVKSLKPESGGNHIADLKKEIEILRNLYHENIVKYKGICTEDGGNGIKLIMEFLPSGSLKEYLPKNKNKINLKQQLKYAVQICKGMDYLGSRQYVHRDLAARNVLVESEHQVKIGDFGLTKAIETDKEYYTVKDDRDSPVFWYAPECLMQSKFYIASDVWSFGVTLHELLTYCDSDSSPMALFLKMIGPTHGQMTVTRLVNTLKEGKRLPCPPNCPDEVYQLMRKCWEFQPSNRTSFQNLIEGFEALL
T2 sequence (O60674 849-1124 limits assumed): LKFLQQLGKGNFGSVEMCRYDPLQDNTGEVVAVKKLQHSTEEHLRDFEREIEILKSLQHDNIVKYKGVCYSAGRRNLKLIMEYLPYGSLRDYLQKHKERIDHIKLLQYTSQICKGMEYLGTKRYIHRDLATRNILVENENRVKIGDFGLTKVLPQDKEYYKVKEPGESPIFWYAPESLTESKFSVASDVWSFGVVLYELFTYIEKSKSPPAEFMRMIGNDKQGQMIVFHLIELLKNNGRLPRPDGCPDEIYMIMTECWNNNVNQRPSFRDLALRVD

SMILES | IC50 (JAK1; Table 3) | IC50 (JAK2; Table 3) | IC50 (JAK3; Table 3) | IC50 (TYK2; Table 3) | also measured
FC(F)C(F)(F)Oc1cccc(Nc2nc(-c3cc(C(F)(F)F)cc(C(F)(F)F)c3)cn3ccnc23)c1 | – | – | – | – | IC50 (JAK1; Table 6): < 50 µM; IC50 (JAK2; Table 6): > 50 µM; IC50 (JAK3; Table 6): > 50 µM; IC50 (TYK2; Table 6): > 50 µM
CCN(CCO)c1ccc(Nc2nc(-c3ccccc3)cn3ccnc23)cc1 | – | – | – | – | IC50 (JAK1; Table 6): < 50 µM; IC50 (JAK2; Table 6): < 50 µM; IC50 (JAK3; Table 6): < 50 µM; IC50 (TYK2; Table 6): < 50 µM
CN(C)C(=O)COc1cccc(Nc2nc(-c3ccccc3)cn3ccnc23)c1 | – | – | – | – | IC50 (JAK1; Table 6): < 50 µM; IC50 (JAK2; Table 6): < 50 µM; IC50 (JAK3; Table 6): > 50 µM; IC50 (TYK2; Table 6): < 50 µM
CCN(CCO)c1ccc(Nc2nc(-c3ccccc3Cl)cn3ccnc23)cc1 | – | – | – | – | IC50 (JAK1; Table 6): < 50 µM; IC50 (JAK2; Table 6): < 50 µM; IC50 (JAK3; Table 6): < 50 µM; IC50 (TYK2; Table 6): < 50 µM
CN(C)C(=O)COc1cccc(Nc2nc(-c3ccccc3Cl)cn3ccnc23)c1 | – | – | – | – | IC50 (JAK1; Table 6): < 50 µM; IC50 (JAK2; Table 6): < 50 µM; IC50 (JAK3; Table 6): < 50 µM; IC50 (TYK2; Table 6): < 50 µM
CCN(CCO)c1ccc(Nc2nc(-c3ccc(F)c(Cl)c3)cn3ccnc23)cc1 | – | – | – | – | IC50 (JAK1; Table 6): < 50 µM; IC50 (JAK2; Table 6): < 50 µM; IC50 (JAK3; Table 6): > 50 µM; IC50 (TYK2; Table 6): < 50 µM
Fc1ccc(-c2cncc(N3CCN(CCN4CCCC4)CC3)n2)cc1Cl [CY734702] | < 50 µM | < 50 µM | < 50 µM | < 50 µM | –
COc1cccc(-c2cccc(N3CCN(C)CC3)n2)c1 [CYT13809] | < 50 µM | < 50 µM | < 50 µM | < 50 µM | –
COc1cncc(-c2cccc(Nc3cccnc3)n2)c1 [CYT14607] | < 50 µM | < 50 µM | < 50 µM | < 50 µM | –
c1cncc(Nc2cccc(-c3ccncc3)n2)c1 [CYT14804] | < 50 µM | < 50 µM | < 50 µM | < 50 µM | –
COc1cncc(-c2cncc(NCc3cccs3)n2)c1 [CYT20303] | < 50 µM | < 50 µM | < 50 µM | < 50 µM | –
Fc1ccc(CNc2cncc(-c3cccnc3)n2)cc1 [CYT20307] | < 50 µM | < 50 µM | < 50 µM | < 50 µM | –
CC(=O)Nc1cccc(-c2cncc(NCc3cccc(Cl)c3)n2)c1 [CYT20310] | < 50 µM | < 50 µM | < 50 µM | < 50 µM | –
COc1cncc(-c2cncc(NCc3ccco3)n2)c1 [CYT20406] | < 50 µM | < 50 µM | < 50 µM | < 50 µM | –
C[C@H](Nc1cncc(-c2cccc(CO)c2)n1)c1ccccc1 [CYT20504] | < 50 µM | < 50 µM | < 50 µM | < 50 µM | –
OCc1cccc(-c2cncc(NCc3ccccc3)n2)c1 [CYT20506] | < 50 µM | < 50 µM | < 50 µM | < 50 µM | –
CC(=O)Nc1cccc(-c2cncc(N[C@@H](C)c3ccccc3)n2)c1 [CYT20508] | < 50 µM | < 50 µM | < 50 µM | < 50 µM | –
COc1cc(-c2cncc(N[C@@H](C)c3ccccc3)n2)cc(OC)c1OC [CYT20510] | < 50 µM | < 50 µM | < 50 µM | < 50 µM | –
COc1cncc(-c2cncc(NCC(C)(C)CO)n2)c1 [CYT21103] | < 50 µM | < 50 µM | < 50 µM | < 50 µM | –
COc1cc(-c2cncc(NCCc3ccncc3)n2)cc(OC)c1OC [CYT21404] | < 50 µM | < 50 µM | < 50 µM | < 50 µM | –
COc1cncc(-c2cncc(N[C@H](CO)C(C)C)n2)c1 [CYT21507] | < 50 µM | < 50 µM | < 50 µM | < 50 µM | –

SMILES | IC50 (JAK1; Table 3) | IC50 (JAK2; Table 3) | IC50 (JAK3; Table 3) | IC50 (TYK2; Table 3) | also measured
COc1cncc(-c2cncc(NCc3ccc(F)cc3)n2)c1 [CYT24108] | < 50 µM | < 50 µM | < 50 µM | < 50 µM | –
COc1cncc(-c2cncc(N[C@@H](C)c3ccccc3)n2)c1 [CYT24510] | < 50 µM | < 50 µM | < 50 µM | < 50 µM | –
COc1cncc(-c2cncc(NCc3ccccc3)n2)c1 [CYT24605] | < 50 µM | < 50 µM | < 50 µM | < 50 µM | –
c1ccc(CNc2cncc(-c3cccnc3)n2)cc1 [CYT24803] | < 50 µM | < 50 µM | < 50 µM | < 50 µM | –
COc1cc(-c2cncc(NCc3ccccc3)n2)cc(OC)c1OC [CYT25209] | < 50 µM | < 50 µM | < 50 µM | < 50 µM | –
OCc1ccccc1-c1cncc(NCc2ccccc2)n1 [CYT25210] | < 50 µM | < 50 µM | < 50 µM | < 50 µM | –
COc1cc(-c2cncc(NCCO)n2)cc(OC)c1OC [CYT28608] | < 50 µM | < 50 µM | < 50 µM | < 50 µM | –
C[C@@H](Nc1cncc(-c2cccc(N)c2)n1)c1ccccc1 [CYT31106] | < 50 µM | < 50 µM | < 50 µM | < 50 µM | –
CC(=O)Nc1cccc(-c2cncc(N[C@H](C)c3ccccc3)n2)c1 [CYT32102] | < 50 µM | < 50 µM | < 50 µM | < 50 µM | –
COc1cc(-c2cncc(N[C@H](C)c3ccccc3)n2)cc(OC)c1OC [CYT32107] | < 50 µM | < 50 µM | < 50 µM | < 50 µM | –
COc1cc(-c2cncc(Nc3ccc(C#N)cc3)n2)cc(OC)c1OC [CYT32302] | < 50 µM | < 50 µM | < 50 µM | < 50 µM | –
Oc1ccc(-c2cncc(N3CCN(Cc4ccccn4)CC3)n2)cc1 [CYT32602] | < 50 µM | < 50 µM | < 50 µM | < 50 µM | –
COc1ccc(N2CCN(c3cncc(-c4ccc(CC(N)C(=O)O)cc4)n3)CC2)cc1OC (centres unmarked) [CYT34205] | < 50 µM | < 50 µM | < 50 µM | < 50 µM | –
CN(C)CCNC(=O)c1cccc(-c2cncc(N3CCN(c4ccccc4C#N)CC3)n2)c1 [CYT34503] | < 50 µM | < 50 µM | < 50 µM | < 50 µM | –
c1cc(-c2cn3ccnc3c(Nc3ccc(N4CCOCC4)cc3)n2)ccn1 [drawing 61] | – | – | – | – | IC50 (JAK1; Table 5): < 50 µM; IC50 (JAK2; Table 5): < 50 µM; IC50 (JAK3; Table 5): < 50 µM; IC50 (TYK2; Table 5): < 50 µM
c1cncc(-c2cn3ccnc3c(Nc3ccc(N4CCOCC4)cc3)n2)c1 [drawing 62] | – | – | – | – | IC50 (JAK1; Table 5): < 50 µM; IC50 (JAK2; Table 5): < 50 µM; IC50 (JAK3; Table 5): < 50 µM; IC50 (TYK2; Table 5): < 50 µM
OCc1ccccc1-c1cn2ccnc2c(Nc2ccc(N3CCOCC3)cc2)n1 [drawing 64] | – | – | – | – | IC50 (JAK1; Table 5): < 50 µM; IC50 (JAK2; Table 5): < 50 µM; IC50 (JAK3; Table 5): < 50 µM; IC50 (TYK2; Table 5): < 50 µM
CCN(CCO)c1ccc(Nc2nc(-c3cccc4ccccc34)cn3ccnc23)cc1 [drawing 68] | – | – | – | – | IC50 (JAK1; Table 5): < 50 µM; IC50 (JAK2; Table 5): < 50 µM; IC50 (JAK3; Table 5): < 50 µM; IC50 (TYK2; Table 5): < 50 µM
CCN(CCO)c1ccc(Nc2nc(-c3ccccc3CO)cn3ccnc23)cc1 [drawing 69] | – | – | – | – | IC50 (JAK1; Table 5): < 50 µM; IC50 (JAK2; Table 5): < 50 µM; IC50 (JAK3; Table 5): < 50 µM; IC50 (TYK2; Table 5): < 50 µM
Nc1cccc(-c2cn3ccnc3c(Nc3ccccc3)n2)c1 [drawing 71] | – | – | – | – | IC50 (JAK1; Table 5): < 50 µM; IC50 (JAK2; Table 5): < 50 µM; IC50 (JAK3; Table 5): < 50 µM; IC50 (TYK2; Table 5): < 50 µM
